The source of these data is publication PMC3297001, “Four Eremophilane Sesquiterpenes from the Mangrove Endophytic Fungus Xylaria sp. BL321” (2012).

As a reminder, the IC50 is the point on the concentration scale where inhibition reaches its midpoint. Read a high IC50 as weaker potency.

The target of this assay is α-glucosidase. The experiment in a line: enzyme assay with PNPG substrate, absorbance at […] nm; activation ([…]) at […], inhibition at higher concentration. Format: biochemical.

In turn, `C=C(C=O)[C@@H]1C[C@@]2(C)C(=CC1=O)[C@H](OC(=O)/C=C/C=C/C(C)CC(C)CC)CC[C@@H]2C(=O)O` (stereo partly shown) [compound 4, 07H239-A] displayed an IC50 of 6.54 µM.
